Data published in article PMC11013662, “New Thiosemicarbazide Derivatives with Multidirectional Biological Action” (Molecules, 2024).
≈ marks a conversion by molar mass, not a printed value.

Tested on: Staphylococcus spp. strains
Assay: Broth microdilution MIC / MBC, staphylococci
Assay type: cell-based
Description: The microdilution method was used to determine the MIC values of newly synthesized compounds. The antimicrobial activity of the thiosemicarbazides series was tested on ten reference bacterial strains purchased from the American Type Culture Collection (ATCC). Seven Gram-positive reference strains (S. aureus ATCC 29213, S. aureus ATCC 43300, S. aureus ATCC 6538, S. aureus ATCC 25923, S. epidermidis ATCC 12228, M. luteus ATCC 10240, and B. cereus ATCC 10876) and three Gram-negative reference bacteria (K. pneumoniae ATCC 13883, E. coli ATCC 25922, S. typhimurium ATCC 14028) were used. […]
A 96-well microtiter plate and microbroth two-fold dilution method was used to determine the minimum inhibitory concentration (MIC) according to the EUCAST (European Committee on Antimicrobial Susceptibility Testing) reference recommendation. […] After incubation, the growth of bacteria was monitored by a Biotek ELx800 (Biokom, Janki, Poland) spectrophotometer at 600 nm (OD600). […]
The in vitro antimicrobial activity of the tested compounds was determined by the MIC, which was defined as the lowest concentration of the compound tested at which no visible growth of the test bacteria was observed. […] MBC was determined after the broth dilution period of an MIC test has been completed. […] The MBC values were determined by observing the first clear area on the agar plate that has no observable bacterial growth.

MBC/MIC ratio (against staphylococci, bacteriostatic): > 4
MIC (all Staphylococcus spp. strains except MRSA ATCC 43300): 1.95 µg/mL (≈ 5.22 µM)
Compound: O=C(NNC(=S)Nc1cccc(Cl)c1)c1cccc(C(F)(F)F)c1 [Compound 3a, 4-(3-Chlorophenyl)-1-(3-trifluoromethylbenzoyl)thiosemicarbazide]
